Laboratory results from US20090275557A1, “Novel Composition for Treatment of Diseases Related to Activated Lymphocytes” (Immune Control, Inc., priority 2008, published 2009).

System: bovine type 2 collagen immunized rats
Assay: Collagen-induced arthritis assay, IP injection protocol, ankle diameter
Format: in vivo, rat
Conditions: IP injection 10 mg/kg once per day, study days 1-3; observed on study days 2-4
Method: Female Lewis rats (CR) weighing between 125-200 g were immunized with bovine type 2 collagen, 2 mg/ml in a 1:1 solution of 0.01 N acetic acid and Freund's incomplete adjuvant (“FIA”). A 0.1 ml portion of the collagen solution was injected id (intradermally) at three sites on the rat. Rats were immunized with the collagen solution on days 1 and 6 of the study. […] On day 9 (study day “0”), baseline ankle diameters were measured. On days 10-15 (study days 1-6), the rats were then treated, via oral gavage, with either 1, 5, or 25 mg/kg of one of ICI-1259 or ICI-1260, prepared as described below. Ankle diameter measurements were measured on each of days 10-16.
Compounds ICI-1259, ICI-1260, ICI-1505, and ICI-1506 were administered via IP injection to treat collagent-induced arthritis in a variation of the experiments described above. Under the protocol of the IP injection experiments, animal were immunized with Bovine Type 2 collagen as previously described. […] On day 9 (study day “0”), baseline ankle diameters were measured. On days 10-12 (study days 1-3), the rats were then treated once per day, via IP injection, with one of ICI-1259, ICI-1260, ICI-1505, or ICI-1506 at 10 mg/kg. Ankle diameter in the immunized rodents was measured on each of days 10-13 as well as on day 14. […] See FIG. 18 (ICI-1259, ICI-1260, and ICI-1505) and FIG. 19 (ICI-1506).
In a separate study, using the IP injection protocol described above, ICI-1259 and 1260 were each dosed at 2 mg/kg and 0.4 mg/kg.

Row | Structure (SMILES) | reduction in ankle swelling (ankle diameter)
1 | CN(C)CCCN1CCC(CCCN2c3ccccc3Sc3ccc(C(F)(F)F)cc32)CC1 [ICI-1505, N,N-dimethyl-3-(4-(3-(2-(trifluoromethyl)-10H-phenothiazin-10-yl)propyl)piperidin-1-yl)propan-1-amine] | statistically significant results were observed
2 | FC(F)(F)c1ccc2c(c1)N(CCCC1CCN(CCCN3CCCCC3)CC1)c1ccccc1S2 [ICI-1506, 10-(3-(1-(3-(piperidin-1-yl)propyl)piperidin-4-yl)propyl)-2-(trifluoromethyl)-10H-phenothiazine] | statistically significant results were observed
